ChEMBL document CHEMBL1128007, “Synthesis of a galactose-fucose disaccharide mimic of sialyl Lewis X” (Bioorg Med Chem Lett, 1994)
The source made the active and inactive calls. The calls are words filed in the database; no cut-off is given here.

Target: T1, E-selectin (Homo sapiens) (UniProt P16581)
T1 sequence (whole entry): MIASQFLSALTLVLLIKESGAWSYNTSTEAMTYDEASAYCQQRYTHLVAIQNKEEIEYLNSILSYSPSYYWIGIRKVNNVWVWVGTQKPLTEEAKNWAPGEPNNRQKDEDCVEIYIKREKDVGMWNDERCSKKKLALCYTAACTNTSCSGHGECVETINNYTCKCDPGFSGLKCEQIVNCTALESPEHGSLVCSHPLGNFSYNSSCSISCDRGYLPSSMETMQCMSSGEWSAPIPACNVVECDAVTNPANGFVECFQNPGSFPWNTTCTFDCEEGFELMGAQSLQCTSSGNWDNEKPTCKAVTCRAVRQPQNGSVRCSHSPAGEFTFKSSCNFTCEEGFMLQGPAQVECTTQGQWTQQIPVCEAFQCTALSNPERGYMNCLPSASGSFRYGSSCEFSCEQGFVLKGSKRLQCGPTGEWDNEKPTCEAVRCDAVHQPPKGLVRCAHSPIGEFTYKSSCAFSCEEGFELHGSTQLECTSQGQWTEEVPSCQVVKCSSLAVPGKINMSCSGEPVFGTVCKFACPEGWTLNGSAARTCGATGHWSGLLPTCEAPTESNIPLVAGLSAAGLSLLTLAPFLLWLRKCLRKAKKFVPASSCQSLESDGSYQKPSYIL
Experiment: Compound was tested at 0.05-100 mM concentration to inhibit ca++ mediated binding of HL-60 cells to Selectin E adsorbed onto a multi-well plate; Active
Format: cell-based

Row | Activity | Structure (SMILES)
1 | Active | COC1OC(C)C(O)(CC(=O)CCCOC2(C(=O)O)CC(O)C(NC(C)=O)C([C@@H](O)[C@H](O)CO)O2)C(O)C1O (stereo partly drawn)
2 | Active | CC(=O)N[C@H]1[C@H]([C@H](O)[C@H](O)CO)O[C@@](O[C@H]2[C@@H](O)[C@@H](CO)O[C@@H](O[C@@H]([C@H](O[C@@H]3O[C@@H](C)[C@@H](O)[C@@H](O)[C@@H]3O)[C@H](C=O)NC(C)=O)[C@H](O)CO)[C@@H]2O)(C(=O)O)C[C@@H]1O
3 | Active | CC1OC(OCCOC2CC(CO)C(O)C(OCC(=O)O)C2O)C(O)C(O)C1O (stereo not drawn)
